The values below come from patent publication EP4537820A1, “COMPOUND AND COMBINATIONS COMPRISING SAID COMPOUND TO IMPROVE IMMUNE RESPONSE” (Institut Gustave-Roussy, priority 2023, dated 2025).

Each structure is given as a SMILES string.

In one assay the target is T1, 20S-REGγ proteasome (Homo sapiens, UniProt P61289).
T1 construct: made in house
In words: Proteasome Activity Assay with fluorogenic AMC substrates, in presence of REGγ. Format: biochemical. The settings on record: 0.5nM human 20S + 12.5nM human REGγ. The protocol: Proteasome Activity Assay - The activity of the 20S and 20S-REGγ proteasomes was followed by fluorescence using the Bz-VGR-AMC (#BML-BW9375-0005, Enzo Life Sciences) substrate at 50µM for tryspin-like activity, the Suc-LLVY-AMC (#BML-P802-0005, Enzo Life Sciences) substrate at 100µM for the chemotrypsin-like activity and the Z-LLE-AMC (#BML-ZW9345-0005, Enzo Life Sciences) substrate at 100µM for the caspase-like activity. Substrates were incubated with 0,5nM of human 20S ((#E-360-050, Biotechne) and 12,5nM of human REGγ or 2nM of human REGαβ with or without compounds at different concentrations. Purified human REGγ and REGGαβ were generously provided by Julien Marcoux and Marie-Pierre Bousquet-Dubouch. Human REGγ and REGαβ were purified according to Le Feuvre et al., 2009 from plasmids kindly provided by Olivier Coux. The activity assay was performed in 96 well plates in a final volume of 80µL. Plates were read every minute for 90 minutes with a FLUOstar plate reader (BMG Labtech). To detect fluorescence, the excitation wavelength was set to 355nm and emission wavelength at 460nm.
The activity of the 20S and 20S-REGγ proteasomes was followed by fluorescence using the Bz-VGR-AMC (#BML-BW9375-0005, Enzo Life Sciences) substrate at 50µM for trypsin-like activity, the Suc-LLVY-AMC (#BML-P802-0005, Enzo Life Sciences) substrate at 100µM for the chemotrypsin-like activity and the Z-LLE-AMC (#BML-ZW9345-0005, Enzo Life Sciences) substrate at 100µM for the caspase-like activity. […]

A further assay addresses REGγ (Homo sapiens, UniProt P61289). In words: Thermal Shift Assay (nanoDSF) with REGγ. The class given is binding. To be noted: REGγ 500nM, compound at 40X (20µM, 0,4% DMSO). The protocol: Thermal shift assay was carried out with nano differential scanning fluorimetry (nanoDSF) using the Tycho NT.6 from Nanotemper and was performed at the I2BC platform (Gif-sur-Yvette). Samples were prepared in a final volume of 25µL in a 96-well plate prior to be loaded on the Tycho capillaries. Proteins were diluted in activity buffer (20mM Tris-HCl pH 7.4 and 20mM NaCl). After optimisation, REGγ concentration was set to 500nM and 20S concentration to 50nM. Compounds concentrations were determined as ratios to protein concentration and to stay below 0,5% of DMSO; accordingly, compounds with REGγ were tested at 40X (20µM, 0,4% DMSO) and at 100X (5µM, 0,1% DMSO) with 20S. A thermal ramp was applied from 20 to 95°C and fluorescence was followed at 350nm and 330 nm, measuring intrinsic fluorescence of the proteins from tryptophan and tyrosine residues. Binding was detected as a shift in the inflection temperature (Ti) compared to the DMSO control.
To assess the efficacy of molecule 58 in directly binding to REGγ, inventors conducted a thermal shift assay (TSA). TSA leverages the property of proteins to undergo unfolding at specific temperatures, and the interaction with a ligand can alter the thermal stability, leading to a shift in the unfolding temperature. In their study, inventors examined how the compound 58 interacted with REGγ and monitored the change in melting temperature (ΔTm).
For orientation: Differential scanning fluorimetry follows unfolding on heating by fluorescence.

Assay [1] concerns MCA205-Glob-SL8-intron cells. Description: MHC-I expression, antigen presentation and PD-L1 surface expression by flow cytometry. The settings on record: 24 hours. Format: cell-based, mouse. The protocol: 2×10^5 of MCA205-Glob-SL8-intron cells were plated in 6-well plates and incubated overnight. The next day cells were treated with different concentrations of drugs for 24h. After treatment, cells were harvested with trypsin before being stained with Zombie Aqua (#423102, Biolegend) and antibodies presented in Table 1 following the protocol provided by the supplier. Samples were acquired on a FACS LSRFortessa X20 (BD Biosciences) and data was analysed with FlowJo (V10) software (TreeStar, Inc.). Table 1: Panels of antibodies for the study of surface expression of MHC-I molecules and SIINFEKL presentation in MCA205-Glob-SL8-intron.
Inventors previously reported a novel and unexpected role of the REGγ-20S complex in the degradation of MHC-I peptides in cancer. In order to elucidate the potential impact of compound 58 on the REGγ-20S complex's modulation of antigenic peptide degradation, they treated mouse MCA205 cells stably expressing the globin-SL8-intron construct with increasing concentrations of compound 58 for 24 hours.
Additionally, they explored the impact of compound 58 on the expression of MHC-I on the surface of MCA205 cells stably expressing the globin-SL8-intron construct. After treating these cells with varying doses of compound 58 for 24 hours, they assessed the levels of murine MHC-I H2-K^b and H2-D^b using flow cytometry. The percentage of cells labeled positively for H2-K^b and H2-D^b in the treated conditions was compared to that in the DMSO control condition.
Furthermore, inventors investigated whether compound 58 had the capability to alter PD-L1 expression on the cell surface of treated tumor cells. To examine this, they exposed MCA205 cells stably expressing the globin-SL8-intron construct to varying concentrations of compound 58 for 24 hours and subsequently assessed PD-L1 expression levels via flow cytometry.
On the technique in general: In flow cytometry, cells or beads pass a laser one at a time.

The mark [2] stands for this setting: 5µm to 25 µM, compared to DMSO control.

T1 sequence (P61289 whole entry): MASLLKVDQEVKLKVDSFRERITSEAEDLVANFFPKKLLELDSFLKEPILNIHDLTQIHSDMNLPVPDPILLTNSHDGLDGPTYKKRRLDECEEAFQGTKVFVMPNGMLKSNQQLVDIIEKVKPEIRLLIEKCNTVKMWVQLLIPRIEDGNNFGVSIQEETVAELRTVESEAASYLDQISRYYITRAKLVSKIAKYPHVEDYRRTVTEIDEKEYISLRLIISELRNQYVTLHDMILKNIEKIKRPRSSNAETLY
REGγ, sequence (P61289 whole entry): as above

As for `Cc1ccc(N=Nc2ccc(C)cc2NC(=O)Nc2ccccc2F)cc1` [compound 58], the “concentration at which inhibition of trypsin-like activity starts” value on 20S-REGγ proteasome (Bz-VGR-AMC 50µM, stronger effect at 100 µM) came out at 50 µM. At 20S-REGγ proteasome (Suc-LLVY-AMC 100µM, inhibited only at this concentration), the “concentration at which chymotrypsin-like activity is inhibited” value was 100 µM. Besides, the “concentration at which inhibition of caspase-like activity starts” value on 20S-REGγ proteasome (Z-LLE-AMC 100µM, stronger effect at 100 µM) turned out to be 50 µM. In addition, the “change in melting temperature (ΔTm)” value at REGγ is “substantial increase in ΔTm”. Further, in assay [1] (25µM, 25-D1.16 antibody, compared to untreated cells), the “presentation of the SIINFEKL peptide (Kb-SIINFEKL complexes on the cell surface)” value is on record as “significant increase”. For the same compound, in assay [1] (setting [2]), the “expression of H2-D^b molecules on the cell surface” value is listed as “dose-dependent increase” and the “expression of H2-K^b molecules on the cell surface” value is on record as “dose-dependent increase”. Further, the “PD-L1 expression on the cell surface” value in assay [1] (varying concentrations, dose-dependent manner) was “significantly increased PD-L1 expression”.
